Where two headings read alike, the source gives them in different places.
Assays:
EGFR del19/T790M/C797S = EGFR del19/T790M/C797S (Homo sapiens, UniProt P00533, C797S/DEL746-750/T790M); test: Biochemical EGFR kinase assay (Lance Ultra TR-FRET), triple mutant del19/T790M/C797S
Outline: (§1)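 Step 1: compound in kinase buffer, 0.003–10 μM. Step 2: kinase reaction 1 h at room temperature. Step 4: TR-FRET read at 615/665 nm; IC50 calculated.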

EGFR L858R/T790M/C797S = EGFR L858R/T790M/C797S (Homo sapiens, UniProt P00533, C797S/L858R/T790M); test: Biochemical EGFR kinase assay (Lance Ultra TR-FRET), triple mutant L858R/T790M/C797S
EGFR L858R/T790M/C797S, sequence (P00533 25-1210 T790M/C797S/L858R): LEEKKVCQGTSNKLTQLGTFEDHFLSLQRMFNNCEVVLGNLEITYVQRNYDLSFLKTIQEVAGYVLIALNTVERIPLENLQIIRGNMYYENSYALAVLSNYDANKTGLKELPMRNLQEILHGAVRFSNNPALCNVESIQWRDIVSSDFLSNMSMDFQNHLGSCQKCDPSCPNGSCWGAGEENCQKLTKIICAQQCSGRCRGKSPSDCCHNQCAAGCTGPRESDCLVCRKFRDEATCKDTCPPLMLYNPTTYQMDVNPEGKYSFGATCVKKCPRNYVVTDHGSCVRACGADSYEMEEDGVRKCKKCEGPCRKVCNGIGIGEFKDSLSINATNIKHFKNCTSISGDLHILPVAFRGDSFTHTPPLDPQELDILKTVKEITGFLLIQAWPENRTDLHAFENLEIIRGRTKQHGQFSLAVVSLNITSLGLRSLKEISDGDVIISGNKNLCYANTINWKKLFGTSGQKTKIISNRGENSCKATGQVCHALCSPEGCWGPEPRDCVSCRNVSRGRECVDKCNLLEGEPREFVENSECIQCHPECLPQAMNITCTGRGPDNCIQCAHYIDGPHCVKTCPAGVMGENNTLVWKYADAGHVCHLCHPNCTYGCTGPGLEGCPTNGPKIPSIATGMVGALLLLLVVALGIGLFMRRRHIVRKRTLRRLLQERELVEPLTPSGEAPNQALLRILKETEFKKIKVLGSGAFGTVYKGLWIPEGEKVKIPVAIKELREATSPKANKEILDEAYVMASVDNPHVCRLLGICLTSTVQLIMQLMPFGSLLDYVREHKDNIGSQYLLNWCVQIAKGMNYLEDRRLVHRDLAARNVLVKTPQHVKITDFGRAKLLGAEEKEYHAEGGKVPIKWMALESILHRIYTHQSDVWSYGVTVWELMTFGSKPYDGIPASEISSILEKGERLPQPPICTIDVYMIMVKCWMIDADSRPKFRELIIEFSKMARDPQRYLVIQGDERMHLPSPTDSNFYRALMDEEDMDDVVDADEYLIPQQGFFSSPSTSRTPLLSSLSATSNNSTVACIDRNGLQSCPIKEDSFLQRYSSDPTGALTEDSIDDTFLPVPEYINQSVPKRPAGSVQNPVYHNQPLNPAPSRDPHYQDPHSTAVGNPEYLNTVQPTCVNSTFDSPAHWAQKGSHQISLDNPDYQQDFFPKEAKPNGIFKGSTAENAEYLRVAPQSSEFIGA
Outline: as §1

EGFR L858R/C797S = EGFR L858R/C797S (Homo sapiens, UniProt P00533, C797S/L858R); test: Biochemical EGFR kinase assay (Lance Ultra TR-FRET), double mutant L858R/C797S
EGFR L858R/C797S, sequence (P00533 25-1210 C797S/L858R): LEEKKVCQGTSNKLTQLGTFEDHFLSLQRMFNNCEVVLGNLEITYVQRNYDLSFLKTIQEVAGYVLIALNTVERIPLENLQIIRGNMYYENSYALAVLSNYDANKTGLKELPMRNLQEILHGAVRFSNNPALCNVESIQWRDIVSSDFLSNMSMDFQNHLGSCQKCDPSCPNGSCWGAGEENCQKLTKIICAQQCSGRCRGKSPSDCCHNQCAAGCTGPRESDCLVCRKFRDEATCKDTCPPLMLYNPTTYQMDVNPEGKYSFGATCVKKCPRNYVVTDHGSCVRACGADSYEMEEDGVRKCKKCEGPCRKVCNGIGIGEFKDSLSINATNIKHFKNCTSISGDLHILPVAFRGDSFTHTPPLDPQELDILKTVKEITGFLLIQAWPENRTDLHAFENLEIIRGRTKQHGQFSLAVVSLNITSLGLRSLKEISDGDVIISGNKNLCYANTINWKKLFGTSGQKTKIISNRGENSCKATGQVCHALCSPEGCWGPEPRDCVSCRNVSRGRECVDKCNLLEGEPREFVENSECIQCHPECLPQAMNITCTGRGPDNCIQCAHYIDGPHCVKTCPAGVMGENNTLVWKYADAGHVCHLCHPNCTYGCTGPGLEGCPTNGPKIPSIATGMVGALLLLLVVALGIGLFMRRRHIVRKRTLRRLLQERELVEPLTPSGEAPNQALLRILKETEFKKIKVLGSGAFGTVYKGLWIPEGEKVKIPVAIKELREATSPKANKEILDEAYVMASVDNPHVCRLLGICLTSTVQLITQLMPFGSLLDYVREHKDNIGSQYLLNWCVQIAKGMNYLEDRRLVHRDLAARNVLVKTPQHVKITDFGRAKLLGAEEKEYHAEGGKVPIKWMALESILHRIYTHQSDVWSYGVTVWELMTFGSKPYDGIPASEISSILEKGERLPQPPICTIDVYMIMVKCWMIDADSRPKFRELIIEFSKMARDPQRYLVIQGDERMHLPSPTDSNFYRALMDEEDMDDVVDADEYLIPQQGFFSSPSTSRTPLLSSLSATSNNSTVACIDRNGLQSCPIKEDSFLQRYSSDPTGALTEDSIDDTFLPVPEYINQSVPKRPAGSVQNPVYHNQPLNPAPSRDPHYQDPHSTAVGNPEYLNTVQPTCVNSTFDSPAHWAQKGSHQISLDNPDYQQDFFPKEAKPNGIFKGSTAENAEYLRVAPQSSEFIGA
Outline: as §1

EGFR wildtype (WT) = EGFR wildtype (WT) (Homo sapiens, UniProt P00533); test: Biochemical EGFR kinase assay (Lance Ultra TR-FRET), wildtype
EGFR wildtype (WT), sequence (P00533 25-1210): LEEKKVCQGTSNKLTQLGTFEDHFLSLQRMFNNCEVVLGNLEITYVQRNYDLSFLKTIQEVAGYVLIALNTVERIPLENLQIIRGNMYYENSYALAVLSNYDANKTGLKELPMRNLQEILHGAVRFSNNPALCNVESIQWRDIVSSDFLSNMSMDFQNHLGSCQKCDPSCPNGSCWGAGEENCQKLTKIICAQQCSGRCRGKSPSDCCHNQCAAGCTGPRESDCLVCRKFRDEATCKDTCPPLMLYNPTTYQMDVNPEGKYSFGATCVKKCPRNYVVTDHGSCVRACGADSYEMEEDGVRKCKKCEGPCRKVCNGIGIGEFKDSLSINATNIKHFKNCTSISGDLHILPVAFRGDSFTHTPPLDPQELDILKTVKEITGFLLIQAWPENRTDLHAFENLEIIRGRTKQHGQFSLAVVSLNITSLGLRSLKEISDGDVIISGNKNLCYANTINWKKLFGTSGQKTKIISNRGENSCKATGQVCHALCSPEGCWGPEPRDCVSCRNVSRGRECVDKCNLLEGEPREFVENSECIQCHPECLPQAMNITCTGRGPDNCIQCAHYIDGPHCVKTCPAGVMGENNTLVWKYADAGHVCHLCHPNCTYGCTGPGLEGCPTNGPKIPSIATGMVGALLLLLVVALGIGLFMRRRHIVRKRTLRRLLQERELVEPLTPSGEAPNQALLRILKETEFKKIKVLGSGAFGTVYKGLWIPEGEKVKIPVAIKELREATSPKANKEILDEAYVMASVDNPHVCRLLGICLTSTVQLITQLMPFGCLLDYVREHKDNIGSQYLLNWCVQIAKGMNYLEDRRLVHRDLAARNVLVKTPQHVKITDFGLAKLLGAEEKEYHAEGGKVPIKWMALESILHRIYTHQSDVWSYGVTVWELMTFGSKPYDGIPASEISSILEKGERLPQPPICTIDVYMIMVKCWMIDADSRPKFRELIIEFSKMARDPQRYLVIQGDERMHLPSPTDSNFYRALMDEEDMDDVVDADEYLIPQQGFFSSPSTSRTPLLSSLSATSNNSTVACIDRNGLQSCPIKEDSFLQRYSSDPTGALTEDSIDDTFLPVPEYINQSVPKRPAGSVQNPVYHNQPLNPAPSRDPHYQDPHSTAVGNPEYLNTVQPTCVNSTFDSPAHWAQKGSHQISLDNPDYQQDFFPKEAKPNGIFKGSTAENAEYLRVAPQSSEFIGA
Outline: as §1

EGFR del19/C797S = EGFR del19/C797S (Homo sapiens, UniProt P00533, C797S/DEL746-750); test: Biochemical EGFR kinase assay (Lance Ultra TR-FRET), double mutant del19/C797S
EGFR del19/C797S, sequence (P00533 with tags, fused parts or gaps DEL746-750/C797S): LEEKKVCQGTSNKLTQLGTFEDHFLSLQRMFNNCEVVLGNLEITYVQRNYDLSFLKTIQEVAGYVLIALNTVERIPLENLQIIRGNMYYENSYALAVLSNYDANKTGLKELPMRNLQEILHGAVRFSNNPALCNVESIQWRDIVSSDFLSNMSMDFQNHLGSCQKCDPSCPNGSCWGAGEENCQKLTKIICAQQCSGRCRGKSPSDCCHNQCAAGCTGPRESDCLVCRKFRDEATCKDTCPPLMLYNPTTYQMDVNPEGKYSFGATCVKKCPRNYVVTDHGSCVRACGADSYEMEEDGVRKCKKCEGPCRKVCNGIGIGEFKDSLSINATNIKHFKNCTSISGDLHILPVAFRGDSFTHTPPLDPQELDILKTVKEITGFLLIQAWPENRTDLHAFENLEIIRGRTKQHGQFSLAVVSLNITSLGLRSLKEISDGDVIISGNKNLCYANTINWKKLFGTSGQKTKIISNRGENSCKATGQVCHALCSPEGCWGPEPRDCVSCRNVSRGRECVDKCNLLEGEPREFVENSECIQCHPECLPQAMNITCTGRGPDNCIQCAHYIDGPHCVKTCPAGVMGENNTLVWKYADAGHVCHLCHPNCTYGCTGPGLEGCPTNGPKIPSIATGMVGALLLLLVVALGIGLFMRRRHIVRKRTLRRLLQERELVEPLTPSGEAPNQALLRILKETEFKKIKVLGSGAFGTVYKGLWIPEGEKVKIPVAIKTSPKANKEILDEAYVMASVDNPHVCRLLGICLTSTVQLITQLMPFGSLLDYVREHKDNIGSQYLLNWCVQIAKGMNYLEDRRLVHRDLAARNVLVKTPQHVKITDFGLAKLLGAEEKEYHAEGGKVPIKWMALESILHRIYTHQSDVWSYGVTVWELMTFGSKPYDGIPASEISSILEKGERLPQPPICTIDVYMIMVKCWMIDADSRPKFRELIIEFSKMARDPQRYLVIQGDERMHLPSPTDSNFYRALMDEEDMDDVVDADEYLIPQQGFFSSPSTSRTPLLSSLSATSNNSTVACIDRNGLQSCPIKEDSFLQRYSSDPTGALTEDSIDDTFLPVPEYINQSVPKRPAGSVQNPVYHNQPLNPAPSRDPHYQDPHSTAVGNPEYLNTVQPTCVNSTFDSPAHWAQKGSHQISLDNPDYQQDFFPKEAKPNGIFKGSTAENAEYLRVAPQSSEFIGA
Outline: as §1

[1] = Km ATP, read-out: IC50 del19/T790M/C797S (nM) Km ATP
[2] = Km ATP, read-out: IC50 L858R/T790M/C797S (nM) Km ATP
[3] = Km ATP, read-out: IC50 L858R/C797S (nM) Km ATP
[4] = Km ATP, read-out: IC50 WT (nM) Km ATP
[5] = Km ATP, read-out: IC50 del19/C797S (nM) Km ATP
[6] = IC50 del19/T790M/C797S (nM) 100 μM ATP, 100 μM ATP
[7] = IC50 L858R/T790M/C797S (nM) 100 μM ATP, 100 μM ATP
[8] = IC50 L858R/C797S (nM) 100 μM ATP, 100 μM ATP
[9] = IC50 WT (nM) 100 μM ATP, 100 μM ATP
[10] = IC50 del19/C797S (nM) 100 μM ATP, 100 μM ATP

SMILES	IC50 (EGFR del19/T790M/C797S; [1]) [nM]	IC50 (EGFR L858R/T790M/C797S; [2]) [nM]	IC50 (EGFR L858R/C797S; [3]) [nM]	IC50 (EGFR wildtype (WT); [4]) [nM]	IC50 (EGFR del19/C797S; [5]) [nM]	IC50 (EGFR del19/T790M/C797S; [6]) [nM]	IC50 (EGFR L858R/T790M/C797S; [7]) [nM]	IC50 (EGFR L858R/C797S; [8]) [nM]	IC50 (EGFR wildtype (WT); [9]) [nM]	IC50 (EGFR del19/C797S; [10]) [nM]	also measured
CN(C)CCNC1CCC(Nc2cc(Nc3ccnc(-c4cnn(S(=O)(=O)C5CC5)c4)n3)ncc2-c2ccn(C(F)F)n2)CC1 (stereo not shown) [Example 99, N^2-(2-(1-(cyclopropylsulfonyl)-1H-pyrazol-4-yl)pyrimidin-4-yl)-5-(1-(difluoromethyl)-1H-pyrazol-3-yl)-N4-(4-((2-(dimethylamino)ethyl)amino)cyclohexyl)pyridine-2,4-diamine]	–	–	–	–	–	0.5	0.8	4.8	612	1.7	–
CS(=O)(=O)Cn1cc(-c2nccc(Nc3cc(N[C@H]4CC[C@@](C)(O)CC4)c(-c4ccn(C(F)F)n4)cn3)n2)cn1 [Example 150, (1s,4s)-4-((5-(1-(Difluoromethyl)-1H-pyrazol-3-yl)-2-((2-(1-((methylsulfonyl)methyl)-1H-pyrazol-4-yl)pyrimidin-4-yl)amino)pyridin-4-yl)amino)-1-methylcyclohexan-1-ol]	1.6	1.2	14.7	104	21.2	–	–	–	–	–	–
C[C@]1(O)CC[C@@H](Nc2cc(Nc3ccnc(-c4cnn(CC5CC5)c4)n3)ncc2-c2ccn(C(F)F)n2)CC1 [Example 141, (1s,4s)-4-((2-((2-(1-(Cyclopropylmethyl)-1H-pyrazol-4-yl)pyrimidin-4-yl)amino)-5-(1-(difluoromethyl)-1H-pyrazol-3-yl)pyridin-4-yl)amino)-1-methylcyclohexan-1-ol]	–	–	–	–	–	15.8	3.2	198	> 10000	111	–
O=S(=O)(C1CC1)n1cc(-c2nccc(Nc3cc(OC4CCC(OC(F)F)CC4)c(-c4cnn(C(F)F)c4)cn3)n2)cn1 (stereo not shown) [Example 70, 2-(1-(Cyclopropylsulfonyl)-1H-pyrazol-4-yl)-N-(4-((4-(difluoromethoxy)cyclohexyl)oxy)-5-(1-(difluoromethyl)-1H-pyrazol-4-yl)pyridin-2-yl)pyrimidin-4-amine]	10.2	3.8	57	1740	202	9.7	13.5	1490	> 10000	190	–
FC(F)Cn1cc(-c2nccc(Nc3cc(N[C@H]4CC[C@@H](F)CC4)c(-c4ccn(CC(F)(F)F)n4)cn3)n2)cn1 [Example 339, N^2-(2-(1-(2,2-Difluoroethyl)-1H-pyrazol-4-yl)pyrimidin-4-yl)-N^4-((1s,4s)-4-fluorocyclohexyl)-5-(1-(2,2,2-trifluoroethyl)-1H-pyrazol-3-yl)pyridine-2,4-diamine]	–	–	–	–	–	–	–	–	–	–	IC50 (EGFR del19/T790M/C797S; Km ATP, read-out: IC50 del19/T790M/C797S, Km ATP): 2.9 nM; IC50 (EGFR L858R/T790M/C797S; Km ATP, read-out: IC50 L858R/T790M/C797S, Km ATP): 0.4 nM; IC50 (EGFR L858R/C797S; Km ATP, read-out: IC50 L858R/C797S, Km ATP): 113 nM; IC50 (EGFR wildtype (WT); Km ATP, read-out: IC50 WT, Km ATP): 424 nM; IC50 (EGFR del19/C797S; Km ATP, read-out: IC50 del19/C797S, Km ATP): 1070 nM
Cn1ccc(-c2cnc(Nc3ccnc(-c4cnn(S(=O)(=O)C5CC5)c4)n3)cc2N[C@H]2CC[C@](O)(C(F)(F)F)CC2)n1 [Example 94, (1s,4s)-4-((2-((2-(1-(Cyclopropylsulfonyl)-1H-pyrazol-4-yl)pyrimidin-4-yl)amino)-5-(1-methyl-1H-pyrazol-3-yl)pyridin-4-yl)amino)-1-(trifluoromethyl)cyclohexan-1-ol]	–	–	–	–	–	–	–	–	–	–	IC50 (EGFR del19/T790M/C797S; read-out: IC50 del19/T790M/C797S (nM) 100 μM ATP, 100 μM ATP): 3.4 nM; IC50 (EGFR L858R/T790M/C797S; read-out: IC50 L858R/T790M/C797S (nM) 100 μM ATP, 100 μM ATP): 4 nM; IC50 (EGFR L858R/C797S; read-out: IC50 L858R/C797S (nM) 100 μM ATP, 100 μM ATP): 58.1 nM; IC50 (EGFR wildtype (WT); read-out: IC50 WT (nM) 100 μM ATP, 100 μM ATP): > 10000 nM; IC50 (EGFR del19/C797S; read-out: IC50 del19/C797S (nM) 100 μM ATP, 100 μM ATP): 54.1 nM
C[C@H](CCF)Nc1cc(Nc2ccnc(-c3cnn(S(=O)(=O)C4CC4)c3)n2)ncc1-c1ccn(C(F)F)n1 [Example 212, (R)—N^2-(2-(1-(Cyclopropylsulfonyl)-1H-pyrazol-4-yl)pyrimidin-4-yl)-5-(1-(difluoromethyl)-1H-pyrazol-3-yl)-N^4-(4-fluorobutan-2-yl)pyridine-2,4-diamine]	2.1	2.3	38.5	294	72	–	–	–	–	–	–

Continued by falling IC50 (EGFR L858R/T790M/C797S; [2]), values first:

IC50 (EGFR del19/T790M/C797S; [1]) [nM]	IC50 (EGFR L858R/T790M/C797S; [2]) [nM]	IC50 (EGFR L858R/C797S; [3]) [nM]	IC50 (EGFR wildtype (WT); [4]) [nM]	IC50 (EGFR del19/C797S; [5]) [nM]	IC50 (EGFR del19/T790M/C797S; [6]) [nM]	IC50 (EGFR L858R/T790M/C797S; [7]) [nM]	IC50 (EGFR L858R/C797S; [8]) [nM]	IC50 (EGFR wildtype (WT); [9]) [nM]	IC50 (EGFR del19/C797S; [10]) [nM]	SMILES	also measured
3.6	0.5	42.7	255	57.1	3	4.8	277	> 10000	290	CC1(O)CCC(Nc2cc(Nc3ccnc(-c4cnn(C5CCCO5)c4)n3)ncc2-c2ccn(C(F)F)n2)CC1 (stereo not shown) [Example 318, (1s,4s)-4-((5-(1-(Difluoromethyl)-1H-pyrazol-3-yl)-2-((2-(1-(tetrahydrofuran-2-yl)-1H-pyrazol-4-yl)pyrimidin-4-yl)amino)pyridin-4-yl)amino)-1-methylcyclohexan-1-ol]	–
0.6	0.4	15.4	2850	13.5	1	2.1	293	> 10000	–	O=S(=O)(C1CC1)n1cc(-c2nccc(Nc3cc(N[C@H]4CC[C@](O)(C(F)F)CC4)c(-c4ccn(C(F)F)n4)cn3)n2)cn1 [Example 200, (1s,4s)-4-((2-((2-(1-(Cyclopropylsulfonyl)-1H-pyrazol-4-yl)pyrimidin-4-yl)amino)-5-(1-(difluoromethyl)-1H-pyrazol-3-yl)pyridin-4-yl)amino)-1-(difluoromethyl)cyclohexan-1-ol]	–
–	0.3	1.1	1.6	1	1.8	1	1.7	504	0.8	Cn1nc(-c2cnc(Nc3ccnc(-c4cnn(S(=O)(=O)C5CC5)c4)n3)cc2N[C@H]2CC[C@@H](C(C)(C)O)CC2)cc1C(C)(C)O [Example 298, 2-(3-(6-((2-(1-(Cyclopropylsulfonyl)-1H-pyrazol-4-yl)pyrimidin-4-yl)amino)-4-(((1s,4s)-4-(2-hydroxypropan-2-yl)cyclohexyl)amino)pyridin-3-yl)-1-methyl-1H-pyrazol-5-yl)propan-2-ol]	–
0.3	0.2	0.3	3.4	0.6	0.5	0.3	3.8	4880	0.5	C[C@]1(O)CC[C@@H](Nc2cc(Nc3ccnc(-c4cnn(S(=O)(=O)C5CC5)c4)n3)ncc2-c2cn3c(n2)CCC3)CC1 [Example 274, (1s,4s)-4-((2-((2-(1-(Cyclopropylsulfonyl)-1H-pyrazol-4-yl)pyrimidin-4-yl)amino)-5-(6,7-dihydro-5H-pyrrolo[1,2-a]imidazol-2-yl)pyridin-4-yl)amino)-1-methylcyclohexan-1-ol]	–
0.4	0.2	0.3	0.6	0.8	0.6	0.4	–	183	0.9	Cn1nc(-c2cnc(Nc3ccnc(-c4cnn(S(=O)(=O)C5CC5)c4)n3)cc2N[C@H]2CC[C@@](C)(O)CC2)cc1C(C)(C)O [Example 293, (1s,4s)-4-((2-((2-(1-(Cyclopropylsulfonyl)-1H-pyrazol-4-yl)pyrimidin-4-yl)amino)-5-(5-(2-hydroxypropan-2-yl)-1-methyl-1H-pyrazol-3-yl)pyridin-4-yl)amino)-1-methylcyclohexan-1-ol]	–
0.1	0.1	0.1	3.9	1.3	–	–	–	–	–	O=S(=O)(C1CC1)n1cc(-c2nccc(Nc3cc(NN4CCC(O)CC4)c(-c4ccn(C(F)F)n4)cn3)n2)cn1 [Example 153, 1-((2-((2-(1-(Cyclopropylsulfonyl)-1H-pyrazol-4-yl)pyrimidin-4-yl)amino)-5-(1-(difluoromethyl)-1H-pyrazol-3-yl)pyridin-4-yl)amino)piperidin-4-ol]	–
0.2	0.1	3	26.9	6.5	–	–	–	–	–	Cc1ccn(-c2cnc(Nc3ccnc(-c4cnn(S(=O)(=O)C5CC5)c4)n3)cc2N[C@H]2CC[C@@](C)(O)CC2)n1 [Example 168, (1s,4s)-4-((2-((2-(1-(Cyclopropylsulfonyl)-1H-pyrazol-4-yl)pyrimidin-4-yl)amino)-5-(3-methyl-1H-pyrazol-1-yl)pyridin-4-yl)amino)-1-methylcyclohexan-1-ol]	–
